Experimental data: ChEMBL document CHEMBL1123894, “Structure-activity relationships of cyclic opioid peptide analogues containing a phenylalanine residue in the 3-position” (J Med Chem, 1987)
Bridge positions count the residues as written; N and C are the ends. Square brackets hold non-standard residues; d marks the D form. Peptide text beside a SMILES is read from it. Orn = NCCC[C@H](N)C(=O)O

Tests used:
Mu-type opioid receptor [1] = molecular target: T1, Mu-type opioid receptor (Cavia porcellus, UniProt P97266); assay: Inhibitory activity towards Opioid receptor mu 1 using guinea pig ileum (GPI) assay was determined for the compound; format: tissue-based
Mu-type opioid receptor [2] = molecular target: T2, Mu-type opioid receptor (Rattus norvegicus, UniProt P33535); assay: Binding affinity towards Opioid receptor mu 1 in rat brain membrane using [3H]DAGO as radioligand; format: cell membranes
[3] = molecular target: Delta-type opioid receptor (Rattus norvegicus, UniProt P33533); assay: Inhibition of [3H]DSLET binding to rat brain membrane Opioid receptor delta 1
[4] = molecular target: Delta-type opioid receptor (Mus musculus, UniProt P32300); assay: Inhibitory activity towards electrically induced contractions in mouse vas deferens expressing delta opioid receptor; format: functional, tissue-based
Mu-type opioid receptor [5] = molecular target: T1, Mu-type opioid receptor; assay: Inhibitory activity towards electrically induced contractions in guinea pig ileum expressing Opioid receptor mu 1; format: tissue-based
Mu-type opioid receptor [6] = molecular target: T1, Mu-type opioid receptor; assay: Inhibitory activity towards electrically induced contractions in guinea pig ileum expressing mu opioid receptor; format: tissue-based
Mu-type opioid receptor [7] = molecular target: T2, Mu-type opioid receptor; assay: Binding affinity towards mu Opioid receptor in rat brain membrane using [3H]DAGO as radioligand; format: cell membranes

Sequence of Delta-type opioid receptor (Mus musculus, UniProt P32300) (P32300 whole entry): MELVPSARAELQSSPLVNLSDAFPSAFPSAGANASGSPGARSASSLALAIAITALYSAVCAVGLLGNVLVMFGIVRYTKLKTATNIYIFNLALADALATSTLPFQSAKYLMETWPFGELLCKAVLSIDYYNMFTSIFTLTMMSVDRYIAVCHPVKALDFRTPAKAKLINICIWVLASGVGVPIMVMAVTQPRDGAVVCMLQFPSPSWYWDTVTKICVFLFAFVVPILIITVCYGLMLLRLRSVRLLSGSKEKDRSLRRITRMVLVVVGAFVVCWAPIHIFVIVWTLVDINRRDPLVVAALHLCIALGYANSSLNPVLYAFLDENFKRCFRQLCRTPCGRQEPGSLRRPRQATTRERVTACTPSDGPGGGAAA
T2 sequence (P33535 whole entry): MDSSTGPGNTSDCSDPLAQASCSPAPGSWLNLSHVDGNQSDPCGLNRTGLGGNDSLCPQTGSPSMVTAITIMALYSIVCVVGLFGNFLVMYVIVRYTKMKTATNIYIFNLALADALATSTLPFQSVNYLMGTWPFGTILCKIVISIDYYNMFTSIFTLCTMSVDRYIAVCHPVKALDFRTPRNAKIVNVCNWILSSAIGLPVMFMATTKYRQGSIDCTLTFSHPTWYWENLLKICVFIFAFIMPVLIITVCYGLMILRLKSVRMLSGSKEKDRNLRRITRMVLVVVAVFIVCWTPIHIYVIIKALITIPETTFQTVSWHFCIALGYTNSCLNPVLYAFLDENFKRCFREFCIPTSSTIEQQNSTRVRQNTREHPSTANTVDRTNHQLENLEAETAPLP
Sequence of Delta-type opioid receptor (Rattus norvegicus, UniProt P33533) (P33533 whole entry): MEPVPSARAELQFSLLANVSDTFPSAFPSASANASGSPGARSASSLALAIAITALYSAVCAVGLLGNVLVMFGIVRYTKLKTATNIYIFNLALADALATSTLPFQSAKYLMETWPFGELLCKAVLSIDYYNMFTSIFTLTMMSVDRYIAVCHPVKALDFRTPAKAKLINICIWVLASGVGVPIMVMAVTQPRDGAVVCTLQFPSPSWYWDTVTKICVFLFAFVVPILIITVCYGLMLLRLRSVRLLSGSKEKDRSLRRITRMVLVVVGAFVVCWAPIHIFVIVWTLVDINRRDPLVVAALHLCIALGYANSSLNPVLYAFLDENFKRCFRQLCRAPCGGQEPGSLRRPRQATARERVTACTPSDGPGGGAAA
T1 sequence (P97266 whole entry): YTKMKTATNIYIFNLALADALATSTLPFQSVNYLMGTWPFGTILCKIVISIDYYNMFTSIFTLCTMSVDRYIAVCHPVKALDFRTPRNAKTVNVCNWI

Structure (SMILES) | IC50 (Mu-type opioid receptor [1]) [µM] | Ki (Mu-type opioid receptor [2]) [µM] | Ki [3] [µM] | IC50 [4] [µM] | IC50 (Mu-type opioid receptor [5]) [µM] | IC50 (Mu-type opioid receptor [6]) [µM] | Ki (Mu-type opioid receptor [7]) [µM]
NC(=O)[C@@H]1CSSC[C@@H](NC(=O)[C@@H](N)Cc2ccc(O)cc2)C(=O)N[C@@H](Cc2ccccc2)C(=O)N1 | 0.0647 | 0.011 | 0.373 | – | – | – | –
NC(=O)[C@@H]1CC(=O)NCCC[C@@H](NC(=O)[C@@H](N)Cc2ccc(O)cc2)C(=O)N[C@@H](Cc2ccc([N+](=O)[O-])cc2)C(=O)N1 | – | 0.273 | 5.06 | > 100 | 2.34 | – | –
NC(=O)[C@H]1CC(=O)NCCC[C@@H](NC(=O)[C@@H](N)Cc2ccc(O)cc2)C(=O)N[C@@H](Cc2ccccc2)C(=O)N1 | – | 0.0217 | 0.422 | 4.81 | 0.632 | – | –
CN1C(=O)[C@H](NC(=O)[C@@H](N)Cc2ccc(O)cc2)CCCNC(=O)C[C@@H](C(N)=O)NC(=O)[C@@H]1Cc1ccccc1 | – | 3.57 | 28.1 | 1.38 | 6.46 | – | –
NC(=O)[C@@H]1CCNC(=O)C[C@@H](NC(=O)[C@@H](N)Cc2ccc(O)cc2)C(=O)N[C@@H](Cc2ccccc2)C(=O)N1 | – | 0.0248 | 4.17 | 2.03 | 0.279 | – | –
NC(=O)[C@@H]1CC(=O)NCCC[C@@H](NC(=O)[C@@H](N)Cc2ccc(O)cc2)C(=O)N[C@@H](Cc2ccccc2)C(=O)N1 | – | 0.0104 | 2.22 | 3.88 | – | 0.0362 | –
NC(=O)[C@@H]1CC(=O)NCCC[C@@H](NC(=O)[C@@H](N)Cc2ccc(O)cc2)C(=O)N[C@H](Cc2ccccc2)C(=O)N1 | – | 3.04 | > 380 | > 8.64 | > 21 | – | –
NC(=O)[C@@H]1CC(=O)NCCC[C@H](NC(=O)[C@@H](N)Cc2ccc(O)cc2)C(=O)N[C@@H](Cc2ccccc2)C(=O)N1 | – | – | > 60 | > 100 | 16.8 | – | 4.83
NC(=O)[C@@H]1CC(=O)NCCC[C@@H](NC(=O)[C@@H](N)Cc2ccc(O)cc2)C(=O)N[C@@H](CCc2ccccc2)C(=O)N1 | – | 0.0119 | 0.849 | 1.37 | 0.111 | – | –
NC(=O)[C@@H]1CC(=O)NCCC[C@@H](NC(=O)[C@@H](N)Cc2ccc(O)cc2)C(=O)N[C@@H](C2CCCCC2)C(=O)N1 | – | – | 3.57 | 1.66 | 18.4 | – | 0.445
NC(=O)[C@@H]1CCCNC(=O)C[C@@H](NC(=O)[C@@H](N)Cc2ccc(O)cc2)C(=O)N[C@@H](Cc2ccccc2)C(=O)N1 (H-Y[dD]F[Orn]-NH2; lactam 2-4) | – | 0.00955 | 1.32 | 8.57 | 0.522 | – | –
